Test results as given in patent US9868717B2, “Tricyclic sulphonamide compounds and methods of making and using same” (Zafgen, Inc., priority 2012, dated 2018).

target: T1, Human recombinant MetAP2 (Homo sapiens, UniProt P50579); assay: inhibition of recombinant human MetAP2 activity (MAS substrate, amino acid oxidase/Amplex red fluorescence); assay type: biochemical; conditions: manganese enzyme, 30 minutes at 25° C., pH 7.5, 0.75 mM MAS substrate, 1% DMSO
T1 construct: made in house; host or cells: Sf9 insect cells
T1 sequence (P50579 whole entry): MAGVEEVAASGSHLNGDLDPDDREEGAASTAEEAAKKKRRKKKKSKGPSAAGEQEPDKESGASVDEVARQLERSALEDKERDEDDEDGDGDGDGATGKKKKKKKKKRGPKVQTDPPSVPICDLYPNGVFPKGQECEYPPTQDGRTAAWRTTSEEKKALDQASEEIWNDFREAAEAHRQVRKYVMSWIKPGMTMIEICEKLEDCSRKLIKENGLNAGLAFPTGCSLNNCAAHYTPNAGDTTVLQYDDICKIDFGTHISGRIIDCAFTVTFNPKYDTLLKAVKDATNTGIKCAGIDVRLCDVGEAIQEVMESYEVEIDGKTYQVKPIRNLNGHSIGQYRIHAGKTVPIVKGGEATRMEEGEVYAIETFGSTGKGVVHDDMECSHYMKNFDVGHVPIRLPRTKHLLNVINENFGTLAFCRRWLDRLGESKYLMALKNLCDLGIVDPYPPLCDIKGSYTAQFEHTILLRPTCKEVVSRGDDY
Method: Compounds are tested for their capacity to inhibit recombinant human MetAP2 activity using the following assay.
Human recombinant MetAP2 expressed in Sf9 cells followed by affinity purification and EDTA treatment to remove endogenous active site cation was dialysed against MnCl2 to produce the manganese enzyme used in the assay. The assay was carried out for 30 minutes at 25° C. in 50 mM HEPES buffer containing 100 mM NaCl, pH 7.5 the presence of 0.75 mM Methionine-Alanine-Serine (MAS) substrate and 50 μg/ml amino acid oxidase using a dilution of purified MetAP2 giving >3-fold signal:noise. Cleavage of the substrate by MetAP2 and oxidation of free methionine by amino acid oxidase was detected and quantified using fluorescence generated by Amplex red (10-acetyl-3,7-dihydroxyphenoxazine) in combination with horseradish peroxidase which detects H2O2 released during the oxidation step. The fluorescent signal was detected using a multiwell fluorimeter. Compounds were diluted in DMSO prior to addition to assay buffer, the final DMSO concentration in the assay being 1%.
The IC50 is defined as the concentration at which a given compound achieves 50% inhibition of control. IC50 values are calculated using the XLfit software package (version 2.0.5).

IC50, < 50 nM:
CC(C)(O)[C@H]1CCN(C/C=C\c2cc(F)ccc2S(=O)(=O)Nc2ccc3c(c2C(=O)O)OC[C@@H]2C[C@H]32)C1 [Example 27, (1aR,7bS)-5-(4-Fluoro-2-{(Z)-3-[(S)-3-(2-hydroxypropan-2-yl)pyrrolidin-1-yl]prop-1-enyl}benzenesulfonylamino)-1,1a,2,7b-tetrahydrocyclopropa[c]chromene-4-carboxylic acid]
CC(C)(O)[C@@H]1CCN(C/C=C\c2cc(F)ccc2S(=O)(=O)Nc2ccc3c(c2C(=O)O)OC[C@@H]2C[C@H]32)C1 [Example 28, (1aR,7bS)-5-(4-Fluoro-2-{(Z)-3-[(R)-3-(2-hydroxypropan-2-yl)pyrrolidin-1-yl]prop-1-enyl}benzenesulfonylamino)-1,1a,2,7b-tetrahydrocyclopropa[c]chromene-4-carboxylic acid]
O=C(O)c1c(NS(=O)(=O)c2ccc(F)cc2CC2CC3CCCN3C2)ccc2c1OC[C@@H]1C[C@H]21 (stereo partly drawn) [Example 29, (1aR,7bS)-5-[4-Fluoro-2-(hexahydro-1H-pyrrolizin-2-ylmethyl)benzene-sulfonylamino]-1,1a,2,7b-tetrahydrocyclopropa[c]chromene-4-carboxylic acid]
CCN1CC[C@@H](Cc2ccccc2S(=O)(=O)Nc2ccc3c(c2C(=O)O)OC[C@@H]2C[C@H]32)C1 [Example 31, (1aR,7bS)-5-[2-((3R)-1-Ethylpyrrolidin-3-ylmethyl)benzenesulfonylamino]-1,1a,2,7b-tetrahydrocyclopropa[c]chromene-4-carboxylic acid]
CCN1CC[C@H](C(=O)NCc2cc(F)ccc2S(=O)(=O)Nc2ccc3c(c2C(=O)O)OC[C@@H]2C[C@H]32)C1 [Example 32, (1aR,7bS)-5-{2-[((S)-1-ethylpyrrolidine-3-carbonyl)aminomethyl]-4-fluoro-benzenesulfonylamino}-1,1a,2,7b-tetrahydrocyclopropa[c]chromene-4-carboxylic acid-formic acid (1:1)]
CCN1CC[C@@H](NCCc2cc(F)ccc2S(=O)(=O)Nc2ccc3c(c2C(=O)O)OC[C@@H]2C[C@H]32)C1 [Example 33, (1aR,7bS)-5-{2-[2-((R)-1-ethylpyrrolidin-3-ylamino)ethyl]-4-fluoro-benzene-sulfonylamino}-1,1a,2,7b-tetrahydrocyclopropa[c]chromene-4-carboxylic acid-formic acid (1:1)]
